± gives the expanded uncertainty stated by the source.
Experiments:
[1] = refractive index (Na D-line) (dimensionless); conditions: 101.33 kPa, Liquid, Standard Abbe refractometry
[2] = 101.33 kPa, Liquid; for speed of sound: Sing-around technique in a fixed-path interferometer; for mass density: Vibrating tube method

CC(C)OC(C)C [diisopropyl ether]
Conditions | mass density, [2] [kg/m3] | refractive index, [1] | speed of sound, [2] [m/s]
283.15 K | 733.833 ± 0.24 | 1.37358 ± 0.00037 | 1065.5 ± 1.1
288.15 K | 728.692 ± 0.24 | 1.37084 ± 0.00037 | 1043.1 ± 1.1
293.15 K | 723.509 ± 0.24 | 1.36812 ± 0.00037 | 1020.6 ± 1.1
298.15 K | 718.289 ± 0.24 | 1.36525 ± 0.00037 | 998.27 ± 1.1
303.15 K | 713.032 ± 0.25 | 1.36242 ± 0.00037 | 976.02 ± 1.1
308.15 K | 707.727 ± 0.25 | 1.35956 ± 0.00037 | 953.94 ± 1.1
313.15 K | 702.378 ± 0.25 | 1.35667 ± 0.00037 | 932.01 ± 1.1

CC(C)CCl [1-chloro-2-methylpropane]
Conditions | mass density, [2] [kg/m3] | refractive index, [1] | speed of sound, [2] [m/s]
283.15 K | 888.845 ± 0.23 | 1.40354 ± 0.00037 | 1141.7 ± 1.2
288.15 K | 883.211 ± 0.23 | 1.4008 ± 0.00037 | 1120.7 ± 1.2
293.15 K | 877.539 ± 0.23 | 1.39802 ± 0.00037 | 1099.6 ± 1.2
298.15 K | 871.833 ± 0.23 | 1.39529 ± 0.00037 | 1078.7 ± 1.1
303.15 K | 866.096 ± 0.23 | 1.39245 ± 0.00037 | 1057.8 ± 1.1
308.15 K | 860.319 ± 0.23 | 1.38963 ± 0.00037 | 1037 ± 1.1
313.15 K | 854.502 ± 0.23 | 1.38683 ± 0.00037 | 1016.3 ± 1.1

CC(C)(C)Cl [2-chloro-2-methylpropane]
Conditions | mass density, [2] [kg/m3] | refractive index, [1] | speed of sound, [2] [m/s]
283.15 K | 855.249 ± 0.23 | 1.39115 ± 0.00037 | 1046.9 ± 1.1
288.15 K | 849.243 ± 0.23 | 1.38821 ± 0.00037 | 1025.5 ± 1.1
293.15 K | 843.191 ± 0.23 | 1.38522 ± 0.00037 | 1004.1 ± 1.1
298.15 K | 837.096 ± 0.23 | 1.38225 ± 0.00037 | 983.25 ± 1.1
303.15 K | 830.958 ± 0.23 | 1.37921 ± 0.00037 | 961.51 ± 1.1
308.15 K | 824.772 ± 0.23 | 1.37619 ± 0.00037 | 940.46 ± 1.1
313.15 K | 818.536 ± 0.24 | 1.37312 ± 0.00037 | 919.41 ± 1.1

CCCCCl [1-chlorobutane]
Conditions | mass density, [2] [kg/m3] | refractive index, [1] | speed of sound, [2] [m/s]
283.15 K | 897.339 ± 0.23 | 1.4075 ± 0.00037 | 1180.1 ± 1.2
288.15 K | 891.855 ± 0.23 | 1.40481 ± 0.00037 | 1159.5 ± 1.2
293.15 K | 886.335 ± 0.23 | 1.40212 ± 0.00037 | 1138.8 ± 1.2
298.15 K | 880.705 ± 0.23 | 1.3995 ± 0.00037 | 1118.2 ± 1.2
303.15 K | 875.204 ± 0.23 | 1.39672 ± 0.00037 | 1097.6 ± 1.2
308.15 K | 869.585 ± 0.23 | 1.39395 ± 0.00037 | 1077.2 ± 1.1
313.15 K | 863.882 ± 0.23 | 1.39131 ± 0.00037 | 1056.9 ± 1.1

CCC(C)Cl (stereo not given) [2-chlorobutane]
Conditions | mass density, [2] [kg/m3] | refractive index, [1] | speed of sound, [2] [m/s]
283.15 K | 884.34 ± 0.23 | 1.40226 ± 0.00037 | 1127.7 ± 1.2
288.15 K | 878.756 ± 0.23 | 1.39953 ± 0.00037 | 1107.2 ± 1.2
293.15 K | 873.13 ± 0.23 | 1.3968 ± 0.00037 | 1086.7 ± 1.1
298.15 K | 867.474 ± 0.23 | 1.39404 ± 0.00037 | 1066.2 ± 1.1
303.15 K | 861.779 ± 0.23 | 1.39125 ± 0.00037 | 1045.9 ± 1.1
308.15 K | 856.044 ± 0.23 | 1.38844 ± 0.00037 | 1025.3 ± 1.1
313.15 K | 850.266 ± 0.23 | 1.38562 ± 0.00037 | 1005.3 ± 1.1
